Experimental data taken from US20020026053A1, “Novel 3-(substituted) -2- indolinones compounds and use thereof as inhibitors of protein kinase activity” (priority 1997, published 2002).

What was measured:
FLK-1 receptor = assay: FLK-1 Assay (cellular/catalytic ELISA, VEGF-stimulated phosphotyrosine); format: cell-based; parameters: concentration or dose not given beside the values
Method in brief: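 NIH3T3 C7#3 cells engineered to express Flk-1 were serum-starved overnight (0.1% FBS), then exposed to compound for 2 h at 37 °C (final dilution 1:200, 0.5% DMSO) before VEGF stimulation. Lysates captured on anti-FLK-1 antiserum plates; phosphotyrosine detected by UB40 antibody/POD-ABTS ELISA versus untreated controls.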

PDGF-R = PDGF-R Assay (cellular ELISA, U1242 cells); format: cell-based; parameters: concentration or dose not given beside the values
Method in brief: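 U1242 cells seeded in 0.5% serum, serum-starved, then exposed to compound for 2 hr at 37°C before 5–10 min ligand stimulation and lysis in HNTG. Lysate captured on receptor-antibody-coated plates; phosphotyrosine detected with polyclonal anti-pTyr, goat anti-rabbit IgG and ABTS/H2O2, A410 (ref 630 nm), versus untreated cells.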

Row | Compound | Flk Kinase % Inhibition (P.110) (FLK-1 receptor) | PDGF Kinase % Inhibition (P.119) (PDGF-R)
1 | Cc1c(O)ccc(C=C2C(=O)Nc3c(Br)cc(Br)c(C)c32)c1O [10718/H09] | −5.0% | –
2 | Cc1c(Br)cc(Br)c2c1C(=Cc1ccco1)C(=O)N2 [10718/H10] | 1.4% | –
3 | Cc1c(Br)cc(Br)c2c1C(=Cc1ccc([N+](=O)[O-])o1)C(=O)N2 [10718/H11] | 13.0% | –
4 | CCOc1ccc(C=C2C(=O)Nc3c(Br)cc(Br)c(C)c32)cc1OC [10719/H02] | 22.0% | –
5 | Cc1c(Br)cc(Br)c2c1C(=Cc1ccc(O)c(O)c1)C(=O)N2 [10719/H03] | −40.4% | –
6 | COc1ccc(C=C2C(=O)Nc3c(Br)cc(Br)c(C)c32)c(OC)c1 [10719/H04] | 3.4% | –
7 | CCc1c(C)[nH]c(C=C2C(=O)Nc3c(Br)cc(Br)c(C)c32)c1C [10719/H05] | 18.5% | –
8 | COc1cc(OC)c(C=C2C(=O)Nc3c(Br)cc(Br)c(C)c32)c(OC)c1 [10719/H06] | 17.8% | –
9 | CCN(CC)c1ccc(C=C2C(=O)Nc3c(Br)cc(Br)c(C)c32)c(O)c1 [10734/H05] | 1.6% | −14.4%
10 | Cc1c(Br)cc(Br)c2c1C(=Cc1ccc([N+](=O)[O-])cc1)C(=O)N2 [10734/H06] | 2.6% | −26.3%
11 | Cc1c(Br)cc(Br)c2c1C(=Cc1cc(Br)cc(Br)c1O)C(=O)N2 [10734/H07] | 1.4% | −6.4%
12 | Cc1c(Br)cc(Br)c2c1C(=Cc1cccc(F)c1O)C(=O)N2 [10734/H08] | −2.2% | 2.9%
13 | Cc1c(Br)cc(Br)c2c1C(=Cc1ccc(O)c(Br)c1)C(=O)N2 [10734/H09] | −2.2% | −19.2%
14 | Cc1c(Br)cc(Br)c2c1C(=Cc1ccc(C(C)(C)C)cc1)C(=O)N2 [10734/H10] | 3.9% | −17.9%
15 | Cc1c(Br)cc(Br)c2c1C(=Cc1ccc(Br)s1)C(=O)N2 [10734/H11] | 9.9% | −17.9%
16 | Cc1ccccc1C=C1C(=O)Nc2c(Br)cc(Br)cc21 [10735/A02] | −13.4% | 14.3%
17 | O=C1Nc2c(Br)cc(Br)cc2C1=Cc1ccc(F)c(F)c1 [10735/A03] | −1.0% | 21.9%
18 | O=C1Nc2c(Br)cc(Br)cc2C1=Cc1cc(F)cc(F)c1 [10735/A04] | −20.8% | 18.8%
19 | O=C1Nc2c(Br)cc(Br)cc2C1=Cc1cccc(C(F)(F)F)c1 [10735/A05] | −12.2% | 0.9%
20 | O=C1Nc2c(Br)cc(Br)cc2C1=Cc1cc(C(F)(F)F)cc(C(F)(F)F)c1 [10735/A06] | −8.5% | 4.7%

Row | Compound | Flk Kinase % Inhibition (P.110) (FLK-1 receptor) | PDGF Kinase % Inhibition (P.119) (PDGF-R)
21 | N#Cc1ccccc1C=C1C(=O)Nc2c(Br)cc(Br)cc21 [10735/A07] | −1.3% | 0.5%
22 | O=C1Nc2c(Br)cc(Br)cc2C1=Cc1c(F)cccc1F [10735/A08] | −19.6% | 5.3%
23 | O=C1Nc2c(Br)cc(Br)cc2C1=Cc1cccc2ccccc12 [10735/A09] | −6.3% | 1.9%
24 | O=C1Nc2c(Br)cc(Br)cc2C1=Cc1ccc(Cl)cc1Cl [10735/A10] | 2.2% | −0.2%
25 | O=C1Nc2c(Br)cc(Br)cc2C1=Cc1ccc(-c2ccccc2)cc1 [10735/A11] | 2.2% | 5.7%
26 | Cc1ccccc1C=C1C(=O)Nc2ccc(I)cc21 [10735/B02] | 1.1% | 22.6%
27 | O=C1Nc2ccc(I)cc2C1=Cc1ccc(F)c(F)c1 [10735/B03] | −14.3% | 16.4%
28 | O=C1Nc2ccc(I)cc2C1=Cc1cc(F)cc(F)c1 [10735/B04] | 6.1% | 2.9%
29 | O=C1Nc2ccc(I)cc2C1=Cc1cccc(C(F)(F)F)c1 [10735/B05] | 7.4% | 17.4%
30 | O=C1Nc2ccc(I)cc2C1=Cc1cc(C(F)(F)F)cc(C(F)(F)F)c1 [10735/B06] | 17.5% | 14.0%
31 | N#Cc1ccccc1C=C1C(=O)Nc2ccc(I)cc21 [10735/B07] | −5.9% | 0.5%
32 | O=C1Nc2ccc(I)cc2C1=Cc1c(F)cccc1F [10735/B08] | 1.6% | 9.8%
33 | O=C1Nc2ccc(I)cc2C1=Cc1cccc2ccccc12 [10735/B09] | 15.9% | −0.5%
34 | O=C1Nc2ccc(I)cc2C1=Cc1ccc(Cl)cc1Cl [10735/B10] | 9.2% | 3.6%
35 | O=C1Nc2ccc(I)cc2C1=Cc1ccc(-c2ccccc2)cc1 [10735/B11] | 15.7% | −8.8%
36 | Cc1ccccc1C=C1C(=O)Nc2ccc(Br)c(C)c21 [10735/C02] | 0.1% | 4.7%
37 | Cc1c(Br)ccc2c1C(=Cc1ccc(F)c(F)c1)C(=O)N2 [10735/C03] | 0.9% | 4.3%
38 | Cc1c(Br)ccc2c1C(=Cc1cc(F)cc(F)c1)C(=O)N2 [10735/C04] | 17.2% | 12.9%
39 | Cc1c(Br)ccc2c1C(=Cc1cccc(C(F)(F)F)c1)C(=O)N2 [10735/C05] | 11.2% | 20.5%
40 | Cc1c(Br)ccc2c1C(=Cc1cc(C(F)(F)F)cc(C(F)(F)F)c1)C(=O)N2 [10735/C06] | 18.2% | 25.0%

Row | Compound | Flk Kinase % Inhibition (P.110) (FLK-1 receptor) | PDGF Kinase % Inhibition (P.119) (PDGF-R)
41 | Cc1c(Br)ccc2c1C(=Cc1ccccc1C#N)C(=O)N2 [10735/C07] | 9.6% | 11.9%
42 | Cc1c(Br)ccc2c1C(=Cc1c(F)cccc1F)C(=O)N2 [10735/C08] | 10.1% | −2.6%
43 | Cc1c(Br)ccc2c1C(=Cc1cccc3ccccc13)C(=O)N2 [10735/C09] | 24.5% | −2.6%
44 | Cc1c(Br)ccc2c1C(=Cc1ccc(Cl)cc1Cl)C(=O)N2 [10735/C10] | 21.0% | 4.0%
45 | Cc1c(Br)ccc2c1C(=Cc1ccc(-c3ccccc3)cc1)C(=O)N2 [10735/C11] | 18.6% | −2.9%
46 | CNS(=O)(=O)c1ccc2c(c1)C(=Cc1ccccc1C)C(=O)N2 [10735/D02] | 0.9% | 11.6%
47 | CNS(=O)(=O)c1ccc2c(c1)C(=Cc1ccc(F)c(F)c1)C(=O)N2 [10735/D03] | 4.5% | 12.9%
48 | CNS(=O)(=O)c1ccc2c(c1)C(=Cc1cc(F)cc(F)c1)C(=O)N2 [10735/D04] | 9.1% | 8.5%
49 | CNS(=O)(=O)c1ccc2c(c1)C(=Cc1cccc(C(F)(F)F)c1)C(=O)N2 [10735/D05] | 29.5% | 20.5%
50 | CNS(=O)(=O)c1ccc2c(c1)C(=Cc1cc(C(F)(F)F)cc(C(F)(F)F)c1)C(=O)N2 [10735/D06] | 16.2% | 14.7%
51 | CNS(=O)(=O)c1ccc2c(c1)C(=Cc1ccccc1C#N)C(=O)N2 [10735/D07] | 21.6% | 3.6%
52 | CNS(=O)(=O)c1ccc2c(c1)C(=Cc1c(F)cccc1F)C(=O)N2 [10735/D08] | 21.6% | −5.7%
53 | CNS(=O)(=O)c1ccc2c(c1)C(=Cc1cccc3ccccc13)C(=O)N2 [10735/D09] | 22.6% | 6.7%
54 | CNS(=O)(=O)c1ccc2c(c1)C(=Cc1ccc(Cl)cc1Cl)C(=O)N2 [10735/D10] | 15.1% | 3.3%
55 | CNS(=O)(=O)c1ccc2c(c1)C(=Cc1ccc(-c3ccccc3)cc1)C(=O)N2 [10735/D11] | 25.1% | 0.5%
56 | Cc1ccccc1C=C1C(=O)Nc2ccc(S(=O)(=O)Nc3ccc(C(F)(F)F)cc3)cc21 [10735/E02] | −2.0% | 14.7%
57 | O=C1Nc2ccc(S(=O)(=O)Nc3ccc(C(F)(F)F)cc3)cc2C1=Cc1ccc(F)c(F)c1 [10735/E03] | 5.1% | 16.0%
58 | O=C1Nc2ccc(S(=O)(=O)Nc3ccc(C(F)(F)F)cc3)cc2C1=Cc1cc(F)cc(F)c1 [10735/E04] | 12.2% | 91.6%
59 | O=C1Nc2ccc(S(=O)(=O)Nc3ccc(C(F)(F)F)cc3)cc2C1=Cc1cccc(C(F)(F)F)c1 [10735/E05] | 14.7% | 47.8%
60 | O=C1Nc2ccc(S(=O)(=O)Nc3ccc(C(F)(F)F)cc3)cc2C1=Cc1cc(C(F)(F)F)cc(C(F)(F)F)c1 [10735/E06] | 23.8% | 32.3%
